# Laboratory results from patent US20140303105A1, “Primycin and components thereof for use in the treatment or prevention of infections caused by specific pathogens” (PANNONPHARMA GYÓGYSZERGYÁRTÓ ZRT., priority 2011, published 2014).
# Experiments:
# [1] = tested on: Coagulase-negative Staphylococus sp., methicillin susceptible; test: Standard microdilution susceptibility test, clinical isolates; format: cell-based; details: 10 clinical isolates
# Escherichia coli B 1218 = details: cited from earlier work
# [2] = tested on: Coagulase-negative Staphylococus sp., methicillin resistant; test: Standard microdilution susceptibility test, clinical isolates; format: cell-based; details: 10 clinical isolates
# [3] = tested on: Staphylococcus epidermidis; details: by Bryskier; cited from earlier work
# Escherichia coli = details: by Bryskier; cited from earlier work
# [4] = tested on: Staphylococcus aureus, methicillin resistant; test: Standard microdilution susceptibility test, clinical isolates; format: cell-based; details: 10 clinical isolates
# [5] = tested on: Staphylococcus aureus, methicillin susceptible; test: as above; format: cell-based; details: 10 clinical isolates
# [6] = tested on: Bacillus spp. and Micrococcus spp.; details: Bryskier 2005; cited from earlier work
# [7] = tested on: Enterococcus faecalis ATCC 29212; test: Microdilution MIC, ATCC reference strains; format: cell-based
# Method: (§1) Identification and characterization of resistance patterns of these bacteria were performed by standard methods.
# (§2) When forming the test groups we attached great importance to the increasing incidence of drug-resistant microbes causing therapeutic problems. Most important of them are methicillin-resistant Staphylococcus aureus (MRSA), methicillin-resistant coagulase-negative Staphylococcus spp. (MRCoNS), penicillin-resistant Streptococcus pneumoniae (pneumococcus), vancomycin-resistant Enterococcus spp. (VRE). Pneumococcus isolates represented various serotypes, VRE isolates belonged to various species. Moreover, vancomycin-resistance of VRE isolates was based on different genetic backgrounds. Antibiotic-resistant strains were also represented among international reference strains, for example methicillin-resistant Staphylococcus aureus ATCC 43300 (MRSA), Staphylococcus aureus with decreased vancomycin susceptibility ATCC 700698 and 700699 (vancomycin intermediate Staphylococcus aureus—VISA), mupirocin-resistant Staphylococcus aureus ATCC BAA1708 and vancomycin-resistant Enterococcus faecalis ATCC 51299 (VRE).
# (§3) Susceptibility tests were performed according to the standard microdilution method (NCCLS (CLSI) M7-A7).
# (§4) The lowest concentration at which no bacterial growth was observed after the incubation period is the Minimal Inhibitory Concentration (MIC). The MIC value is inversely proportional to the antimicrobial efficacy. MIC values of antimicrobial agents can differ by species or even by bacterial strains within species.
# [8] = tested on: Enterococcus faecalis ATCC 51299 (VRE); test: Microdilution MIC, ATCC reference strains; format: cell-based
# Method: as §1, §2, §3, §4
# [9] = tested on: Staphylococcus aureus ATCC 29213; test: Microdilution MIC, ATCC reference strains; format: cell-based
# Method: as §1, §2, §3, §4
# [10] = tested on: Staphylococcus aureus ATCC 25923; test: Microdilution MIC, ATCC reference strains; format: cell-based
# Method: as §1, §2, §3, §4
# [11] = tested on: Escherichia coli ATCC 25922; test: Microdilution MIC, ATCC reference strains; format: cell-based
# Method: as §1, §2, §3, §4
# [12] = tested on: Staphylococcus aureus ATCC 43300 (MRSA); test: Microdilution MIC, ATCC reference strains; format: cell-based
# Method: as §1, §2, §3, §4
# [13] = tested on: Staphylococcus aureus ATCC 700698 (VISA); test: Microdilution MIC, ATCC reference strains; format: cell-based
# Method: as §1, §2, §3, §4
# Streptococcus ATCC 49619 = test: Microdilution MIC, ATCC reference strains; format: cell-based
# Method: as §1, §2, §3, §4
# [14] = tested on: Enterococcus hirae ATCC 8043; test: Microdilution MIC, ATCC reference strains; format: cell-based
# Method: as §1, §2, §3, §4
# [15] = tested on: Staphylococcus aureus ATCC BAA1708 (mupirocin-resistant); test: Microdilution MIC, ATCC reference strains; format: cell-based
# Method: as §1, §2, §3, §4
# [16] = tested on: Bacillus subtilis ATCC 6633; test: Microdilution MIC, ATCC reference strains; format: cell-based
# Method: as §1, §2, §3, §4
# [17] = tested on: Staphylococcus aureus ATCC 700699 (VISA); test: Microdilution MIC, ATCC reference strains; format: cell-based
# Method: as §1, §2, §3, §4
# [18] = tested on: Streptococcus simulans 7866; details: cited from earlier work
# [19] = tested on: Streptococcus pneumoniae, penicillin susceptible; test: Standard microdilution susceptibility test, clinical isolates; format: cell-based; details: for MIC: single isolate
# Micrococcus spp. = details: cited from earlier work
# [20] = tested on: Serotype β Streptococcus 8252; details: cited from earlier work
substance,measurement,setting,value
Primycin,MIC 50%,[1],0.03 µg/mL
same,MIC 90%,[1],0.06 µg/mL
same,MIC Range,[1],0.03 to 0.06 µg/mL
same,Ratio of Sensitive/Total,[1],10/10
same,MIC,Escherichia coli B 1218,50.0 µg/mL
same,MIC 50%,[2],0.06 µg/mL
same,MIC 90%,[2],0.06 µg/mL
same,MIC Range,[2],0.03 to 0.06 µg/mL
same,Ratio of Sensitive/Total,[2],10/10
same,MIC,[3],0.78 µg/mL
same,MIC,Escherichia coli,50 µg/mL
same,MIC 50%,[4],0.06 µg/mL
same,MIC 90%,[4],0.06 µg/mL
same,MIC Range,[4],0.06-0.06 mg/L
same,Ratio of Sensitive/Total,[4],10/10
same,MIC 50%,[5],0.06 µg/mL
same,MIC 90%,[5],0.06 µg/mL
same,MIC Range,[5],0.06-0.06 mg/L
same,Ratio of Sensitive/Total,[5],10/10
same,efficacy,[6],effective
same,Primycin MIC,[7],0.5 µg/mL
same,Primycin MIC,[8],1 µg/mL
same,Primycin MIC,[9],0.06 µg/mL
same,Primycin MIC,[10],0.06 µg/mL
same,Primycin MIC,[11],>64 µg/mL
same,Primycin MIC,[12],0.06 µg/mL
same,Primycin MIC,[13],0.06 µg/mL
same,Primycin MIC,Streptococcus ATCC 49619,0.5 µg/mL
same,Primycin MIC,[14],0.5 µg/mL
same,Primycin MIC,[15],0.06 µg/mL
same,Primycin MIC,[16],0.03 µg/mL
same,Primycin MIC,[17],0.125 µg/mL
same,MIC,[18],0.39 µg/mL
same,MIC 50%,[19]; 10 clinical isolates,0.5 µg/mL
same,MIC 90%,[19]; 10 clinical isolates,0.5 µg/mL
same,MIC Range,[19]; 10 clinical isolates,0.25 to 1 µg/mL
same,Ratio of Sensitive/Total,[19]; 10 clinical isolates,10/10
same,MIC,[19]; serotype 3,0.5 µg/mL
same,MIC,[19]; serotype 4,0.5 µg/mL
same,MIC,[19]; serotype 7F,0.5 µg/mL
same,MIC,[19]; serotype 8,0.5 µg/mL
same,MIC,[19]; serotype 9(V),0.5 µg/mL
same,MIC,[19]; serotype 11(A),0.5 µg/mL
same,MIC,[19]; serotype 19F,0.5 µg/mL
same,MIC,[19]; serotype 23(F),0.25 µg/mL
same,MIC,Micrococcus spp.,0.78 µg/mL
same,MIC,[20],1.56 µg/mL
